In US10694752B2 (priority 2016, dated 2020):
“And” between values parts separate entries of the source, which are not always exact repeats. Equal entries are not always repeated.

Experiments:
[1] = test system: propiconazole resistant Chlorella sorokiniana mutant PcZ-2 (CCAP 211/134); test: Growth of propiconazole resistant mutant PcZ-2 in the presence of propiconazole (OD at 750 nm); assay type: cell-based; details: 10 μM propiconazole; for Average % increase PcZ-2 + 10 uM PcZ: average of triplicates, compared with wild type without propiconazole; for % increase PcZ-2 + 10 μM PcZ: growth of PcZ-2 compared with wild type without propiconazole, individual replicates, 28° C., listed as PcZ
Experimental: (§1) Chlorella sorokiniana cells (Wild type) and propiconazole resistant mutants of Chlorella species (PcZ-2) were inoculated at 0.1-0.15 OD@750 nm (each set in triplicates). To verify the effect of methanol (propiconazole was dissolved in methanol), one set was treated with 0.1% methanol. One set of flasks in triplicate of Wild type and PcZ-2 mutants were inoculated with and without 10 μM propiconazole. After inoculation flasks were kept in 12 h light/12 hour dark cycles of white light in an incubator shaker at 100 rpm. The temperature was 28° C., 70% humidity and 2% ambient CO2. 3 mL sample was removed each day, to determine the Optical density (OD) of the culture at 750 nm. The results obtained are as illustrated in FIG. 1.
(§2) FIG. 1 illustrates a graph of the growth comparison between wild type Chlorella sorokiniana and propiconazole resistant Chlorella sorokiniana mutant PcZ-2, in the presence of propiconazole, wherein A represents wild type Chlorella sorokiniana in the absence of propiconazole, B represents wild type Chlorella sorokiniana grown in the presence of 0.1% methanol, C represents wild type Chlorella sorokiniana grown in the presence of 10 μM propiconazole, D represents PcZ-2 grown in the absence of propiconazole, E represents PcZ-2 grown in the presence of 0.1% methanol, and F represents PcZ-2 grown in the presence of 10 μM propiconazole.

[2] = test system: wild type Chlorella sorokiniana; test: Growth of wild type Chlorella sorokiniana in the presence of propiconazole (OD at 750 nm); assay type: cell-based; details: 10 μM propiconazole; FIG. 1
Experimental: as §1, §2

Compound: CCCC1COC(Cn2cncn2)(c2ccc(Cl)cc2Cl)O1 (centres unmarked) [propiconazole, Propiconazole]
- growth of PcZ-2 in the presence of propiconazole ([1]; FIG. 1): capable of growing
- Average % increase PcZ-2 + 10 uM PcZ ([1]; day 4): 62.66%
- % increase PcZ-2 + 10 μM PcZ ([1]; day 4): 52.73% and 66.67% and 68.57%
- Average % increase PcZ-2 + 10 uM PcZ ([1]; day 6): 20.01%
- % increase PcZ-2 + 10 μM PcZ ([1]; day 6): 13.33% and 28.96% and 17.75%
- Average % increase PcZ-2 + 10 uM PcZ ([1]; day 7): 21.07%
- % increase PcZ-2 + 10 μM PcZ ([1]; day 7): 10.64% and 29.37% and 23.19%
- growth of wild type Chlorella sorokiniana culture in the presence of propiconazole [2]: crashes after a few days
